One series concerns the target T1, PIKfyve (Homo sapiens, UniProt Q9Y2I7).
T1 construct: purchased Nanosyn, Santa Clara, CA, USA (contract assay service)
The series can be described thus: biochemical PIKfyve mobility shift assay (Nanosyn).

A further series relates to Capan-1. As to the kind of experiment: cell proliferation assay (MTS, 72 h). The conditions noted are these: Homo sapiens, CAPAN-1, 72 h, read-out: CC50 Capan-1.
The subject of a further series is HCT-116. The series can be described thus: cell proliferation assay (MTS, 72 h). Particulars: Homo sapiens, HCT-116, 72 h, read-out: CC50 HCT-116.
The test system of the next series is LN-229. The series can be described thus: cell proliferation assay (MTS, 72 h). The conditions noted are these: Homo sapiens, LN-229, 72 h, read-out: CC50 LN-229.
A further series concerns NCI-H460. The series can be described thus: cell proliferation assay (MTS, 72 h). The conditions noted are these: Homo sapiens, NCI-H460, 72 h, read-out: CC50 NCI-H460.
For the next series, the system named is DND-41. As to the kind of experiment: cell proliferation assay (MTS, 72 h). Particulars: DND41, 72 h, read-out: CC50 DND-41.
The subject of the next series is HL-60. As to the kind of experiment: cell proliferation assay (MTS, 72 h). The conditions noted are these: Homo sapiens, HL-60, 72 h, read-out: CC50 HL-60.
The subject of a further series is K-562. As to the kind of experiment: cell proliferation assay (MTS, 72 h). Particulars: Homo sapiens, K562, 72 h, read-out: CC50 K-562.
A further series deals with Z-138. The series can be described thus: cell proliferation assay (MTS, 72 h). Particulars: Homo sapiens, Z-138, 72 h, read-out: CC50 Z-138.
The target in series [1] is T2, PIP4K2C (Homo sapiens, UniProt Q8TBX8).
T2 sequence (Q8TBX8 1-421): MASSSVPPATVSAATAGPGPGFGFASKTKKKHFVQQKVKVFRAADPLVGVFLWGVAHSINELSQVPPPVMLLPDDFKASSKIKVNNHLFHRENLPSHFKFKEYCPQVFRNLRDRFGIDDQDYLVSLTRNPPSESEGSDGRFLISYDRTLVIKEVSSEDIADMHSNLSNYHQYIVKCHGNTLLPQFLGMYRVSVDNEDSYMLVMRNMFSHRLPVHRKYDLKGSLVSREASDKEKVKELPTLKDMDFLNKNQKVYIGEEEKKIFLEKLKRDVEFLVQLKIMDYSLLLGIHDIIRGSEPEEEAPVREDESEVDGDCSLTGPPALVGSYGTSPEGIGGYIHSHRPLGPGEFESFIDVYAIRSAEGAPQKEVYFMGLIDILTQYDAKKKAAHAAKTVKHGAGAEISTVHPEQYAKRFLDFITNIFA
Particulars: cited from earlier work.

The subject of the next series is VEEV (TC-83). The series can be described thus: microbe, parasite or virus in culture. Type of series: cell-based. Particulars: Venezuelan equine encephalitis virus, U-87 MG, 18 h, read-out: VEEV (TC-83) EC50.
A further series deals with SARS-CoV-2. The series can be described thus: microbe, parasite or virus in culture. Particulars: Severe acute respiratory syndrome coronavirus 2, VeroE6/TMPRSS2, 24 h; read-out: SARS-CoV2 EC50. Type of series: cell-based, severe acute respiratory syndrome coronavirus 2.
Series [2] in a line: cell viability (AlamarBlue) in SARS-CoV-2-infected Vero E6/TMPRSS2 cells. Type of series: cell-based. Particulars: African green monkey, Vero E6/TMPRSS2 cells infected with SARS-CoV-2, half-maximal cytotoxic concentration, read-out: SARS-CoV2 CC50. A general note: Resazurin is reduced to fluorescent resorufin, in cell work by metabolically active cells.
The next series deals with U-87 MG cells. Particulars: half-maximal cytotoxic concentration.
For series [3], the target named is T2, PIP4K2C. The series can be described thus: PIP4K2C binding assay (DiscoverX/Kinome platform).
Series [4] has as its system non-Hodgkin lymphoma (NHL) B-cell lines. Particulars: large panel of NHL B-cell lines; read-out: antiproliferative IC50; cited from earlier work.
For series [5], the system named is subcutaneous Burkitt lymphoma xenografts. Particulars: oral administration, mice; cited from earlier work.

Read-outs that look alike come from different tables or passages of the source. Some results are limits rather than exact numbers.

T1 sequence (Q9Y2I7 whole entry): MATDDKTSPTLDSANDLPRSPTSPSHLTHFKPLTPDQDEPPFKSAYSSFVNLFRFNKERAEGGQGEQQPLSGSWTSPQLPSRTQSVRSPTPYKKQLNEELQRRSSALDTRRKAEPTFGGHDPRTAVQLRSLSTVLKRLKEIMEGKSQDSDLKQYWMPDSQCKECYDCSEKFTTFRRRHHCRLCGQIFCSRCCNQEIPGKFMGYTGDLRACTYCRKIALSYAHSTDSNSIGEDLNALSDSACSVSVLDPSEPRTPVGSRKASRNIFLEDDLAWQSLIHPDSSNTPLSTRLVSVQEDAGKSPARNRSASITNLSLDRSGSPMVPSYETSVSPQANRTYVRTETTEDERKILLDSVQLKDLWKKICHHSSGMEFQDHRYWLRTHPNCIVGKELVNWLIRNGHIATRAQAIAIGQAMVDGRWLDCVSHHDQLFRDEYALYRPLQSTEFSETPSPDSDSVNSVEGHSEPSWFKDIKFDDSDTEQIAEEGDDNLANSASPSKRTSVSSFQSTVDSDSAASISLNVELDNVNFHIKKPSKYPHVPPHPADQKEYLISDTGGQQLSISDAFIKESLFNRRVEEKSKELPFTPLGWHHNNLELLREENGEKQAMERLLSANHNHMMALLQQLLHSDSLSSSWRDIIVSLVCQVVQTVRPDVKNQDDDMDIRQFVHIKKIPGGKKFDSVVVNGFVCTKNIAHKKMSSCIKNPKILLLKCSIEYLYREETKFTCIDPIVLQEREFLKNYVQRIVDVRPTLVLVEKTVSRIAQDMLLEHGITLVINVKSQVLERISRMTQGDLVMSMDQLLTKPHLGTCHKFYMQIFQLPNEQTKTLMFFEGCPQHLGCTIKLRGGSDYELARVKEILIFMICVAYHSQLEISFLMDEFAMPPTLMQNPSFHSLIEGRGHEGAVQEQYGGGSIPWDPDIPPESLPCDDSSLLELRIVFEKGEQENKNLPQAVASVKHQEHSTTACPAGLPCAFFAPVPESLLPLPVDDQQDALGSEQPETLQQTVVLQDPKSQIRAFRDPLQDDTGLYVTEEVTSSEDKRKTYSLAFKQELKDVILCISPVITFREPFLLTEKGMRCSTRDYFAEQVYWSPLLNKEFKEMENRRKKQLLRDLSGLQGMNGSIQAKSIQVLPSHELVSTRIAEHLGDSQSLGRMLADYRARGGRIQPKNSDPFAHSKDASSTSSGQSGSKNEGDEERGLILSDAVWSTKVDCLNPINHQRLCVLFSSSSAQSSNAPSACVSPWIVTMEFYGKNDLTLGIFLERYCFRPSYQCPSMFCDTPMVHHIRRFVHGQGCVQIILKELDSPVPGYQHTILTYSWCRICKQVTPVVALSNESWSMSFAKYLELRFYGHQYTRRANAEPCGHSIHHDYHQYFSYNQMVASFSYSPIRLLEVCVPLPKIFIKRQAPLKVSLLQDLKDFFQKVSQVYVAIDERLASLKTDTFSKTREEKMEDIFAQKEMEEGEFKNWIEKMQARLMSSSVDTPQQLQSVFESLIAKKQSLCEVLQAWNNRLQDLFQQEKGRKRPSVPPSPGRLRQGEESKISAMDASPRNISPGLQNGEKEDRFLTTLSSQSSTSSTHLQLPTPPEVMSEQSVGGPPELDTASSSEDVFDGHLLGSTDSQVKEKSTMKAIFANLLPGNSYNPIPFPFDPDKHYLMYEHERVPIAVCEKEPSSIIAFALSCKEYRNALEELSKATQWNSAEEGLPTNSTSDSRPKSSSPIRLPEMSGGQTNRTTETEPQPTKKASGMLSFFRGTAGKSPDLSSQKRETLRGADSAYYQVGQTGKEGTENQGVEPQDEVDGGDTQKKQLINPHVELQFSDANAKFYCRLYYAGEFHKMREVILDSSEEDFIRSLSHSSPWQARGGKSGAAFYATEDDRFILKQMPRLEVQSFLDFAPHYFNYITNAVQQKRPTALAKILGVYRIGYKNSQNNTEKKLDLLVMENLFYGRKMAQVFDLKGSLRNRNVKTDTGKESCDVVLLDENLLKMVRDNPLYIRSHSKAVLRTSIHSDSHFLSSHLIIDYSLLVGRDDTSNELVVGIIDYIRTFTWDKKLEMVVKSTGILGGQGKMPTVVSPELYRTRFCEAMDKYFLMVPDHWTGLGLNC

One may read the IC50 as the midpoint of a concentration-inhibition curve. As a reminder, the CC50 is the concentration that lowers cell viability or growth by half. As to `Fc1ccc(-c2cnc3c(C#Cc4cccnc4)snc3c2)cc1` [Compound 3g, 6-(4-Fluorophenyl)-3-(pyridin-3-ylethynyl)isothiazolo[4,3-b]pyridine], the 50% inhibitory concentration (IC50) on PIKfyve (Tables 1-4 and text) worked out at 10 nM. Besides, the cytotoxic concentration (CC50) was found to be 0.73 ± 0.23 µM in the series on Capan-1; 0.81 ± 0.16 µM with HCT-116; 4.39 ± 0.94 µM with LN-229; 1.46 ± 0.36 µM in the series with NCI-H460; 3.06 ± 1.71 µM in the series on DND-41; 1.51 ± 0.71 µM in the series on HL-60. The CC50 is 5.18 ± 0.48 µM in the series with K-562 and 1.03 ± 0.2 µM with Z-138.
Turning to `COc1ccc(-c2cnc3c(C#Cc4cncc(C)c4)snc3c2)cc1OC` [Compound 7i, 6-(3,4-Dimethoxyphenyl)-3-((5-methylpyridin-3-yl)ethynyl)isothiazolo[4,3-b]pyridine], the half-inhibitory concentration (IC50) at PIKfyve (Tables 1-4 and text) is 2 nM; on PIKfyve (values given in text in nM), 2 nM. In addition, the CC50 was 14.6 ± 2.97 µM with Capan-1; at least 74 µM in the series on HCT-116; above 100 µM with LN-229; above 100 µM in the series on NCI-H460; above 100 µM in the series on DND-41; above 100 µM in the series with HL-60. The cytotoxic concentration (CC50) with K-562 is above 100 µM; in the series with Z-138, 70.2 ± 2.55 µM.
In general, Kd refers to the concentration at which binding is half-saturated. For `FC(F)(F)c1ccccc1-c1nc(NCc2cccs2)c2ccccc2n1` [NIH-12848, reference compound], the Kd at PIP4K2C [1] is 2.8 µM.
The term EC50 denotes the concentration giving half of the maximal effect. On to `NC(=O)c1ccc(-c2cnc3c(C#Cc4cccnc4)snc3c2)cc1` [Compound 3m, 4-(3-(Pyridin-3-ylethynyl)isothiazolo[4,3-b]pyridin-6-yl)benzamide], for which the half-inhibitory concentration (IC50) came out at 1.6 nM on PIKfyve (Table 5 column); 1.6 nM on PIKfyve (Tables 1-4 and text). Besides, the EC50 with VEEV (TC-83) came to 0.19 ± 0.001 µM; in the series with SARS-CoV-2 it was 1.82 ± 0.94 µM. The CC50 in series [2] was above 20 µM; in the series with Capan-1 it was 2.41 ± 0.94 µM; with HCT-116, 0.34 ± 0.78 µM; in the series with LN-229, 3.23 ± 0.78 µM; in the series on NCI-H460, 2.9 ± 1.72 µM; in the series on DND-41 it was 2.25 ± 0.19 µM. Besides, the CC50 came to 1 ± 0.57 µM in the series on HL-60, 6.53 ± 0.46 µM in the series on K-562 and 0.96 ± 0.3 µM in the series on Z-138. In addition, the “VEEV (TC-83) CC50” value with U-87 MG cells is above 20 µM. The compound further gave a Kd on PIP4K2C [3] of 0.041 µM.
`COc1ccc(-c2cnc3c(C#Cc4cccnc4)snc3c2)cc1OC` [Compound 21, 6-(3,4-dimethoxyphenyl)-3-(pyridin-3-ylethynyl)isothiazolo[4,3-b]pyridine]: the EC50 with VEEV (TC-83) was 0.75 ± 0.02 µM. In addition, the CC50 in series [2] is above 20 µM; in the series with Capan-1, 0.81 ± 0.11 µM; in the series on HCT-116, 0.82 ± 0.37 µM; with LN-229 it was 1.62 ± 0.5 µM; with NCI-H460 it was 2.52 ± 1.09 µM; in the series on DND-41 it was 1.75 ± 1.02 µM. In addition, the cytotoxic concentration (CC50) in the series with HL-60 turned out to be 1.47 ± 0.45 µM; with K-562 it was 4.24 ± 0.11 µM; in the series on Z-138 it was 0.77 ± 0.06 µM. Besides, in the series on U-87 MG cells, the “VEEV (TC-83) CC50” value is above 10 µM. In addition, the Kd on PIP4K2C [1] was 0.046 µM.
Turning to `Ic1cccc(/C=N/Nc2nc(N3CCOCC3)nc(N(c3ccccc3)c3ccccc3)n2)c1` [Vacuolin-1, reference compound], the CC50 in the series on Capan-1 is 0.9 ± 0.13 µM; with HCT-116 it was 1.87 ± 0.75 µM; with LN-229, 6.35 ± 1.8 µM; with NCI-H460, 1.46 ± 0.16 µM; in the series on DND-41 it was 24.1 ± 1.21 µM; in the series with HL-60 it was 26.4 ± 1.48 µM. In addition, the CC50 in the series with K-562 stood at 17.2 ± 3.08 µM; in the series on Z-138, 16.6 ± 1.31 µM.
For the compound `Cc1cccc(/C=N/Nc2cc(N3CCOCC3)nc(OCCc3ccccn3)n2)c1` [Apilimod, reference compound], the EC50 in the series with VEEV (TC-83) was 1.35 ± 0.49 µM; in the series on SARS-CoV-2, 0.19 µM. For the same compound, the CC50 in series [2] was 18.4 ± 0.42 µM; with Capan-1 it was below 0.02 µM; with HCT-116, below 0.02 µM; in the series with LN-229, 0.08 ± 0.09 µM; in the series on NCI-H460, below 0.02 µM; with DND-41, 0.08 ± 0.02 µM. Moreover, the values for the CC50 in the series with HL-60, in the series with K-562 and in the series on Z-138 were 0.17 ± 0.02 µM, 0.33 ± 0.34 µM and 0.06 µM, respectively. Also, in the series with U-87 MG cells, the “VEEV (TC-83) CC50” value was above 10 µM. In addition, the concentration for half-maximal inhibition (IC50) in [4] was below 0.2 µM. Further, the “growth of subcutaneous Burkitt lymphoma xenografts” value in series [5] was “inhibits the growth”.
Turning to `COc1ccccc1-c1cnc2c(C#Cc3cccnc3)snc2c1` [Compound 3b, 6-(2-Methoxyphenyl)-3-(pyridin-3-ylethynyl)isothiazolo[4,3-b]pyridine], the IC50 on PIKfyve (Tables 1-4 and text) was 6.8 nM. The CC50 in the series on Capan-1 is 1.02 ± 0.09 µM; in the series on HCT-116, 1.02 ± 1.24 µM; in the series on LN-229, 3.28 ± 1.24 µM; with NCI-H460, 2.97 ± 0.75 µM; with DND-41, 3.92 ± 0.72 µM; in the series on HL-60, 1.48 ± 1.13 µM. The 50% cytotoxic concentration (CC50) in the series with K-562 turned out to be 5.27 ± 0.59 µM; in the series with Z-138, 1.81 ± 0.69 µM.
Take `COc1cncc(C#Cc2snc3cc(-c4ccc(OC)c(OC)c4)cnc23)c1` [Compound 7l, 6-(3,4-Dimethoxyphenyl)-3-((5-methoxypyridin-3-yl)ethynyl)isothiazolo[4,3-b]pyridine]: the IC50 on PIKfyve (Table 5 column) was 3.3 nM; on PIKfyve (Tables 1-4 and text) it was 3.3 nM; on PIKfyve (values given in text in nM), 3 nM. Also, on PIKfyve (ratio of IC50 values), the “fold more potent on PIKfyve than 7o” value came to 6 fold. In addition, the “fold more potent on PIKfyve than 7h” value on PIKfyve (ratio of IC50 values) was 200 fold. Besides, the EC50 in the series with VEEV (TC-83) turned out to be 1.64 ± 0.05 µM; with SARS-CoV-2 it was 4.92 ± 0.93 µM. Further, the CC50 is above 20 µM in series [2]; 1.79 ± 1.2 µM in the series with Capan-1; 2.45 ± 0.85 µM in the series with HCT-116; 5.15 ± 2.05 µM in the series on LN-229; 5.38 ± 0.56 µM in the series on NCI-H460; 5.25 ± 0.64 µM with DND-41. Also, the 50% cytotoxic concentration (CC50) amounted to 1.8 µM with HL-60, 5.7 ± 1.27 µM in the series with K-562 and 1.85 ± 0.07 µM in the series on Z-138. The “VEEV (TC-83) CC50” value in the series with U-87 MG cells is above 10 µM. This compound yielded an equilibrium dissociation constant (Kd) at PIP4K2C [3] of 0.039 µM.
With `COc1ccc(-c2cnc3c(C#Cc4cnccc4C)snc3c2)cc1OC` [Compound 7p, 6-(3,4-Dimethoxyphenyl)-3-((4-methylpyridin-3-yl)ethynyl)isothiazolo[4,3-b]pyridine], the half-inhibitory concentration (IC50) on PIKfyve (Tables 1-4 and text) amounted to 33 nM. Also, the EC50 with VEEV (TC-83) turned out to be 4.01 ± 0.13 µM; in the series with SARS-CoV-2, 0.83 ± 0.06 µM. Also, the CC50 in [2] was above 20 µM; with Capan-1 it was above 100 µM; in the series on HCT-116, above 100 µM; in the series with LN-229, above 100 µM; in the series with NCI-H460, above 100 µM; in the series with DND-41 it was above 100 µM. Moreover, the CC50 is above 100 µM with HL-60, above 100 µM in the series with K-562 and 12.3 ± 1.77 µM in the series on Z-138. The “VEEV (TC-83) CC50” value in the series on U-87 MG cells is above 10 µM.

These data come from publication PMC12472322, “Structure–Activity Relationship Study of 3-Alkynyl-6-aryl-isothiazolo[4,3-b]pyridines as Dual Inhibitors of the Lipid Kinases PIKfyve and PIP4K2C” (Pharmaceuticals, 2025).
